Test results taken from PMC6749524, “Identification of New Antifungal Agents Targeting Chitin Synthesis by a Chemical-Genetic Method” (Molecules, 2019).

Legend:
C. albicans = test: MIC of CFW in the presence of compounds, checkerboard assay; assay type: cell-based, Candida albicans
Procedure: Fresh cell cultures of WT S. cerevisiae and C. albicans ATCC10231 (OD600 = 0.8) were diluted to 10^4 CFU/mL in YPD medium. The in vitro synergistic and antagonistic effects of compounds were determined using checkerboard assay. MIC endpoints were defined as the lowest concentration of drugs, causing 80% decrease in viability compared to the drug-free control (MIC80). The calculation and interpretation of the fractional inhibitory concentration index (FICI) were carried out by referring to the document standards. FICI = (MIC of drug A in combination) / (MIC of drug A alone) + (MIC of drug B in combination) / (MIC of drug B alone). FIC ≤0.5 was considered as a synergistic effect, and >2 was considered as antagonism.

WT yeast cells = test: Cell division morphology, light microscopy; assay type: cell-based, S. cerevisiae; conditions: treatment for 5 hours at 30 °C (IMB-D10 25 μg/mL)
Procedure: WT S. cerevisiae and C. albicans ATCC10231 were grown to 10^5 CFU/mL in YPD medium and then treated with IMB-D10 (12.5 or 25 μg/mL), IMB-F4 (12.5 or 25 μg/mL), or 0.25% DMSO for 3 and 5 hours at 30 ℃. Cells were collected by centrifugation at 1500 g for 5 min and resuspended in PBS. Some cells were examined using 100 × / 1.25 oil immersion objective (DM2500, Leica) and analyzed by Leica las. Some cells were stained with 100 μg/mL Calcofluor White M2R (CFW, Sigma-Aldrich, St. Louis, MO, USA for 3 min and washed three times with water. Then, the cells were examined under the UV light for fluorescent signals.

Hela cells = test: Cytotoxicity assay (MTT); assay type: cell-based, human; conditions: concentration as high as 100 μg/mL, 48 hours
Procedure: (§1) Human embryonic kidney 293 cells and Hela cells were seeded in triplicate in 96-well plates and grown to log-phase in DMEM medium with 10% FBS. Then, the medium was removed, and the cells were incubated with compounds at various concentrations ranging from 3.125 to 100 μg/mL in DMEM medium without FBS. After incubation for 48 hours, MTT reagent was added for further incubation for 4 hours. After we added 50 μL of DMSO, the absorbance was measured at 570 nm. The IC50 values were calculated based on a concentration-response curve.

[1] = test system: human embryonic kidney 293 cells; test: Cytotoxicity assay (MTT); assay type: cell-based; conditions: concentration as high as 100 μg/mL, 48 hours
Procedure: as §1

Chs1 = test: Chitin synthase activity assay (WGA-coated plate); assay type: biochemical, S. cerevisiae; conditions: membrane protein from WT yeast
Procedure: (§2) The inhibitory effect of compounds IMB-D10 and IMB-F4, on the activity of chitin synthases 1, 2, and 3, was measured by the procedure, described previously. In brief, WT yeast cells were grown in YPD medium to OD600 1–2. The cells were sedimented at 1500 g for 15 min at 4 °C and washed once with water. Then, the cells were resuspended in cold 100 mM Tris-HCl (pH 7.5) buffer containing protease inhibitors, and broken by 10 cycles of vortexing with acid-washed glass beads (1 min each). The broken cells were centrifuged for 15 min at 1500g to eliminate cell wall and debris. One volume of supernatant was placed on 2 volumes of 10% w/w sucrose in 100 mM Tris-HCl pH 7.5 and centrifuged at 55,000 g for 2 hours. The pellet was resuspended in 50 mM Tris-HCl pH 7 and used as membrane protein of Chs3. For Chs1 and Chs2, the membrane protein was pretreated with 80 μg/mL trypsin for 30 min at 30 °C.
(§3) To assess the enzyme activity of Chs1, the assay mixture contained 15 μg membrane protein, 5 mM MgCl2, 32 mM Tris-maleate (pH6.5), 0.2% digitonin, 40 mM N-acetyl-glucosamine (GlcNAc), and 4 mM UDP-GlcNAc. For Chs2, the mixture contained 15 μg pretreated membrane protein, 1.6 mM CoCl2, 32 mM Tris-HCl (pH 8), 40 mM GlcNAc, and 4 mM UDP-GlcNAc. For Chs3, the mixture contained pretreated membrane protein 15 μg, 1.6 mM CoCl2, 5 mM NiCl2, 32 mM Tris-HCl (pH 8), 40 mM GlcNAc, and 4 mM UDP-GlcNAc. Different concentrations of IMB-D10 and IMB-F4 were added to the mixture, and the reaction without UDP-GlcNAc was used to measure background absorbance. The 96-well plate coated with 50 μg/mL wheat germ agglutinin (WGA) was washed three times with water, and the reaction mixture was added into the wells and incubated at 30 °C for 60 min. The reaction was stopped by 50 mM EDTA, and the plate was emptied and washed with a large volume of water, followed by the addition of 200 μL 0.5 μg/mL WGA-HRP and incubation for 5 min at room temperature. The plate was washed 5 times with running distilled water. Then, the Tetramethylbenzidine (TMB) reagent was added, and the optical density at 600 nm (OD600) was immediately detected with Multilabel Reader (Envision, PE, Pontyclun, UK). All reactions were performed in triplicate.

Chs3 = biological target: T1, Chs3 (Saccharomyces cerevisiae, UniProt P29465); test: Chitin synthase activity assay (WGA-coated plate); assay type: biochemical, S. cerevisiae
T1 construct: The pellet was resuspended in 50 mM Tris-HCl pH 7 and used as membrane protein of Chs3; endogenous in cells; host or cells: S. cerevisiae WT BY4741, crude membrane fraction
T1 sequence (P29465 whole entry): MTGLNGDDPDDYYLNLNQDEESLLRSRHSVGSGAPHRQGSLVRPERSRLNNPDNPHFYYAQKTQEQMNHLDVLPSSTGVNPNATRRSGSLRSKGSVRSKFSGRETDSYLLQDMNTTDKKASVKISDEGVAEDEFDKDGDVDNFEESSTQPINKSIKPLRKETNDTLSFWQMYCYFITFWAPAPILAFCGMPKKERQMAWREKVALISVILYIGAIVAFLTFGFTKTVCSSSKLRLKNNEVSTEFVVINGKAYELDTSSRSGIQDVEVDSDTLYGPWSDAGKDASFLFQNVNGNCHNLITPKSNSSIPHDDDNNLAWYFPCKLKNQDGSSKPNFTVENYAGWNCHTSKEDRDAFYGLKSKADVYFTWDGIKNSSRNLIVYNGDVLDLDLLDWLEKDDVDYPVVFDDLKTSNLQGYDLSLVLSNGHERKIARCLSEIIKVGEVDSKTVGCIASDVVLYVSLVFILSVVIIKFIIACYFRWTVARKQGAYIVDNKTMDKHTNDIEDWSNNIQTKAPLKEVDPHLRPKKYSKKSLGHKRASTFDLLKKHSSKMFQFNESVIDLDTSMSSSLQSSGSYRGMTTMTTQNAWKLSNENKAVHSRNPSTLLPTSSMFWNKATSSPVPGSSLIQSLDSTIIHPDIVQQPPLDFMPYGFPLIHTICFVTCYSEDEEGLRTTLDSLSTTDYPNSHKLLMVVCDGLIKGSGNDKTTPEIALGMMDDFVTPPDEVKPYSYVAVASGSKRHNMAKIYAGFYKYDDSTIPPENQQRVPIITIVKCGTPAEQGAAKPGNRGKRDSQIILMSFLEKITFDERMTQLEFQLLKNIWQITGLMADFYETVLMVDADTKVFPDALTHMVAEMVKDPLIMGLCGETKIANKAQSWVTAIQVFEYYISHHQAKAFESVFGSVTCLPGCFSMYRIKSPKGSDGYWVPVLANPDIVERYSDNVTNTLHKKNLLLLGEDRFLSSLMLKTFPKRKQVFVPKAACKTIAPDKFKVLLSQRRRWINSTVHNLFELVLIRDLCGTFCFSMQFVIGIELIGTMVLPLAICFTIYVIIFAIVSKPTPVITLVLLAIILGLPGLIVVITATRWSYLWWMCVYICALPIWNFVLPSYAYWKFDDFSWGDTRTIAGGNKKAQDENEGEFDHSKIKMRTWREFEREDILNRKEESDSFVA
Procedure: as §2, §3

Chs2 = Chs2 (Saccharomyces cerevisiae, UniProt P14180); test: Chitin synthase activity assay (WGA-coated plate); assay type: biochemical, S. cerevisiae; conditions: membrane protein from WT yeast
Chain of Chs2 (P14180 whole entry): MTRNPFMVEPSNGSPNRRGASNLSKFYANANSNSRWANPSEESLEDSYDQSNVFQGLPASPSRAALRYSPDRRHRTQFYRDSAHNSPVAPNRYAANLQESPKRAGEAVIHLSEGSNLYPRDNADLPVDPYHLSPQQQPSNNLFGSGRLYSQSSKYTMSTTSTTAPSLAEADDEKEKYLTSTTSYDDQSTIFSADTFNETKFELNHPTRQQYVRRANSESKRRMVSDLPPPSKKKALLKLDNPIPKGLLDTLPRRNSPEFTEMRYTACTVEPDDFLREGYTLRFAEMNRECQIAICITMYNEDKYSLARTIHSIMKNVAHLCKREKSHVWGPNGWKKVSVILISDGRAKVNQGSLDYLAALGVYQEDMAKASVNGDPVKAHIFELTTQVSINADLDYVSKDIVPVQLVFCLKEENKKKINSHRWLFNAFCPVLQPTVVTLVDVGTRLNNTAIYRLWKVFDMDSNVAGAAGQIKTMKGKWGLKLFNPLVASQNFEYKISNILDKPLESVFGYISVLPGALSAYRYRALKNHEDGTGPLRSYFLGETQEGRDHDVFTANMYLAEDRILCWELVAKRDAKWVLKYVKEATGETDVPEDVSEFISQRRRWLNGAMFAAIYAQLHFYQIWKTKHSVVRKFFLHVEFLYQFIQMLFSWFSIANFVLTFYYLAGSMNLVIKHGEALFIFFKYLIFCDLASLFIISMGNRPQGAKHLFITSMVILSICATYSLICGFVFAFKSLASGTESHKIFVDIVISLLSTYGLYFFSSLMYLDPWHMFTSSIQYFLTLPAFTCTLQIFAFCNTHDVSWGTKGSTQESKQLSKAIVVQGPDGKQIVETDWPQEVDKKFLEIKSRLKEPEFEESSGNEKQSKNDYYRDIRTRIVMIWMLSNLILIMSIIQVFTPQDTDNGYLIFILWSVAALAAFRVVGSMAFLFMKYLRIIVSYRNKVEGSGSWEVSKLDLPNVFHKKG
Procedure: as §2, §3

[2] = test system: CHS1, CHS2, and CHS3 genes; test: qRT-PCR gene expression; assay type: cell-based, S. cerevisiae; conditions: 25 μg/mL, 16 hours
Procedure: WT yeast cells were grown to 10^5 CFU/mL in YPD medium and then treated with 25 μg/mL compounds or 0.25% DMSO for 16 hours at 30 °C. Then, the cells were collected by centrifugation at 1500 g for 5 min and washed twice with water. Total RNA was prepared using the Yeast RNA kit (OMEGA R6870-01, Norcross, GA, USA) and treated with DNase Ⅰ (TransGen GD201-01, Beijing, China) to remove genomic DNA. The resulting RNA was reverse-transcribed with the cDNA synthesis super-mix kit (TransGen AT311, Beijing, China). qRT-PCR was performed using Fast Universal SYBR Green Master (Rox, Roche, Mannheim, Gemany) and gene-specific primers (Table S1). The DNA level was measured using an Real-Time Quantitative Thermal Cycler (FTC-3000, Funglyn Biotech Inc, Toronto, Canada). The expression levels were correlated with the copy numbers used to amplify the gene to reach the threshold, then represented as the mean ± SEM relative to the cells treated with DMSO. One-way ANOVAs were performed to identify deviation from the mean.

Row | Molecule | resistance of C. albicans to CFW (C. albicans; 25 and 50 μg/mL IMB-F4) | cell division / cell separation morphology (WT yeast cells) | growth inhibition (toxicity) (Hela cells) | growth inhibition (toxicity) [1] | inhibition of Chs1 activity (Chs1) | IC50 (Chs3) [µM] | MIC of CFW in the presence of IMB-D10 (C. albicans; C. albicans, IMB-D10 at 50 μg/mL) [µg/mL] | IC50 Chs2 (Chs2) [µg/mL] | IC50 Chs1 (Chs1) [µg/mL] | IC50 Chs3 (Chs3; membrane protein from WT yeast) [µg/mL] | expression levels of CHS1, CHS2, and CHS3 genes [2]
1 | COc1cc(OC)cc(C(=O)N(CCn2ccnc2)c2nc3ccc(OC)cc3s2)c1 [IMB-F4, N-(2-(1H-imidazol-1-yl)ethyl)-3,5-dimethoxy-N-(6-methoxybenzo[d]thiazol-2-yl)benzamide] | increased the resistance | normal cell separation | No growth inhibition | No growth inhibition | only inhibited the activity of Chs2 and Chs3 | 6.76 | – | – | – | – | –
2 | N-(2-(diethylamino) ethyl)-N-(7-hydroxy-4-methoxybenzo[d]thiazol -2-yl)-2-oxo-2H-chromene-3-carboxamide [IMB-D10] | – | some yeast cells failed to divide | – | – | – | – | 100 | 3.516 ± 1.35 | 17.46 ± 3.39 | 13.08 ± 2.08 | did not decrease significantly
